Test results published in patent publication US5190741A, “Agents for diagnosing and treating melanomas, aromatic halogenated derivatives usable as such agents and their preparation” (Institut National de la Sante et de la Recherche Medicale …, priority 1989, dated 1993).

Tested on: pulmonary colonies of B16 melanoma
Experiment: Autoradiograms, pulmonary metastasing colonies after i.v. B16 cells
Assay type: in vivo, mouse
Details: 1 to 7 hours after injection
Procedure: The autoradiograms are carried out in mice bearing grafted melanomas:
The animals bearing grafted tumors receive the labelled compounds in the form of the hydrochloride in saline solution (3.7 to 5×10^5 Bq/animal) in a caudal vein. At different time intervals after the administration of the compounds (from 15 minutes to 24 hours) the mice are anesthetized with ether and plunged into liquid nitrogen.
30 μm sections, parallel to a sagittal plane, are prepared in a freezing microtome (TS 260, SLEE) according to the protocol described by Ullberg. The sections, dehydrated in the cold, are applied to sensitive films, Ultrofim ^3 H (LKB, 2208-190) or Hyperfilm ^3 H (Amersham, RPN 535).
After the i.v. injection of B16 melanoma cells the appearance of predominantly pulmonary metastasing colonies is noticed.

## CCNCCNC(=O)c1ccc(I)cc1 [Derivative B, N-(2-ethylaminoethyl) 4-iodo benzamide]
  visualization of pulmonary colonies: readily visualized
